Measurements taken from US9068080B2, “Merocyanine derivatives” (BASF SE, priority 2006, dated 2015).

Assay: UV absorption spectrum (λmax, ε) of the merocyanine UV filters
Format: physicochemical

Structure (SMILES)	UV λmax (in CH3CN/H2O) [nm]	UV λmax (in EtOH) [nm]	ε (molar extinction at λmax) (in EtOH)
CC1(C)CC(NCCC[Si](C)(O[Si](C)(C)C)O[Si](C)(C)C)=CC(=C(C#N)C#N)C1 [MC 07]	382	381	52829
CN(/C=C/C=C(C#N)C#N)CCC[Si](C)(O[Si](C)(C)C)O[Si](C)(C)C [MC 14]	383		
CN(/C=C/C=C(C#N)C#N)CCC[Si]1(C)O[Si](C)(CCCN(C)/C=C/C=C(C#N)C#N)O[Si](C)(CCCN(C)/C=C/C=C(C#N)C#N)O[Si](C)(CCCN(C)/C=C/C=C(C#N)C#N)O1 (stereo not shown) [MC 15]	378		
CCOC(=O)/C(C#N)=C\C=C\N(C)CCC[Si](C)(O[Si](C)(C)C)O[Si](C)(C)C [MC 13]	381	380	69116
CCOC(=O)/C(C#N)=C1\C=C(NCCC[Si](C)(O[Si](C)(C)C)O[Si](C)(C)C)CC(C)(C)C1 [MC 08]		388	50383
CCOC(=O)/C(C#N)=C1/C=C(NCCC[Si]2(C)O[Si](C)(CCCNC3=C/C(=C(\C#N)C(=O)OCC)CC(C)(C)C3)O[Si](C)(CCCNC3=C/C(=C(\C#N)C(=O)OCC)CC(C)(C)C3)O[Si](C)(CCCNC3=C/C(=C(\C#N)C(=O)OCC)CC(C)(C)C3)O2)CC(C)(C)C1 (stereo not shown) [MC 11]		388	181817
CCOC(=O)/C(C#N)=C\C=C\N(C)CCC[Si]1(C)O[Si](C)(CCCN(C)/C=C/C=C(/C#N)C(=O)OCC)O[Si](C)(CCCN(C)/C=C/C=C(/C#N)C(=O)OCC)O[Si](C)(CCCN(C)/C=C/C=C(/C#N)C(=O)OCC)O1 (stereo not shown) [MC 12]	381		
